Results: US11952365B2, “Anti-viral compounds” (Aligos Therapeutics, Inc., priority 2020, dated 2024)
Like-named read-outs stand apart in the source and are kept apart here.

What was measured:
[1] = tested on: human beta-coronavirus OC43; assay: microbe, parasite or virus in culture; type: cell-based; conditions: Betacoronavirus 1, OC43, HeLa, 144 h
[2] = tested on: SARS-CoV-2-GHB-03021/2020; assay: microbe, parasite or virus in culture; type: cell-based; conditions: Severe acute respiratory syndrome coronavirus 2, Vero C1008, 96 h; read-out: VeroE6 + CP (EC50)
human cathepsin L = target: T1, human cathepsin L (Homo sapiens, UniProt P07711); assay: cathepsin L assay; type: biochemical; conditions: 10 pM human cathepsin L, Z-FR-AMC 2 μM, class symbols
T1 construct: purchased R&D Systems
Description: For the cathepsin L assay, 10 pM of human cathepsin L (R&D Systems; Minneapolis, MN) was preincubated for 30 mins with test compounds. Reactions were initiated by the addition of a peptide substrate Z-FR-AMC (final concentration 2 μM, Anaspec; Fremont, CA). Fluorescence was measured at 2-minute intervals for 30 mins using a 355/460 excitation/emission filter module on an Envision plate reader (Perkin Elmer; Waltham, MA). The IC50 values were calculated for each assay by fitting the curves using a four-parameter equation in GraphPad Prism.

in vitro = conditions: African green monkey, VeroE6 + CP (CC50), Vero E6-eGFP cells with CP-100356, absence of virus, MTS
[3] = Cytotoxicity plates without OC43 virus (cell-titer-glo); type: cell-based, human; conditions: human; HeLa cells without OC43 virus, class symbols
Description: The human beta-coronavirus OC43 was purchased from ATCC (Manassas, VA) and propagated using HCT-8 human colorectal epithelial cells (ATCC). HeLa human cervical epithelial cells (ATCC) were used as susceptible host cell lines and were cultured using EMEM media, supplemented with 10% fetal bovine serum (FBS), 1% (v/v) penicillin/streptomycin (P/S), 1% (v/v) HEPES and 1% (v/v) Cellgro Glutagro™ supplement (all Corning, Manassas, VA) at 37° C. For the OC43 antiviral assay, 1.5×10^4 HeLa cells per well were plated in 100 μL complete media in white 96-well plates with clear bottoms at 37° C. for up to 24 h to facilitate attachment and allow cells to recover from seeding stresses. Next day, the cell culture medium was removed. Serially diluted compounds in 100 μL assay media (EMEM, 2% FBS, 1% P/S, 1% Cellgro Glutagro™ supplement, 1% HEPES) were added to the cells and incubated for 4H at 37° C. in a humidified 5% CO2 incubator. 100 μL of OC43 virus stock was diluted to a concentration known to produce optimal cytopathic effect, inducing 80-90% reduction in cell viability. 96-well plates were incubated for 6 (HeLa) days at 33° C.; each plate contains uninfected control wells as well as virus-infected wells that were not treated with compound. Cytotoxicity plates without the addition of OC43 virus were carried out in parallel. At the end of the incubation period, 100 μL cell culture supernatant was replaced with 100 μL cell-titer-glo reagent (Promega, Madison, WI) and incubated for at least 10 min at rt prior to measuring luminescence. Luminescence was measured on a Perkin Elmer (Waltham, MA) Envision plate reader. Antiviral % inhibition was calculated as follows: [(Compound treated cells infected sample)−(no compound infected control)]/[(Uninfected control)−(no compound infected control)]*100; Using GraphPad (San Diego, CA) prism software version 8.3.1, the antiviral dose-response plot was generated as a sigmoidal fit, log(inhibitor) vs response-variable slope (four parameters) model and the EC50 was calculated which is the predicted compound concentration corresponding to a 50% inhibition of the viral cytopathic effect.

HRV3C = HRV3C (Human rhinovirus 14, UniProt P03303); assay: HRV3C protease assay (duplex, SAMDI-MS); type: biochemical, HRV; conditions: 30 mins preincubation
Description: Protease assays were performed in 384-well low volume polypropylene microtiter plates at ambient temperature. For the duplex assay, 3CLpro and HRV3C was added using a Multidrop Combi (Thermo Scientific; Waltham, MA) and preincubated for 30 mins with small molecules. The reactions were initiated by the addition of the two peptide substrates. The reactions were incubated for 30 mins and quenched by the addition of 0.5% formic acid (final) with subsequent neutralization using 1% sodium bicarbonate (final). Internal standard peptides were added in 20 mM Hepes pH 8.0 for quantitation of the protease products. For SAMDI-MS analysis, 2 μL of each reaction mixture was transferred using a 384-channel automated liquid handler to SAMDI biochip arrays functionalized with a neutravidin-presenting self-assembled monolayer. The SAMDI arrays were incubated for 1 h in a humidified chamber to allow the specific immobilization of the biotinylated peptide substrates, cleaved products and internal standards. The samples were purified by washing the SAMDI arrays with deionized ultrafiltered water and dried with compressed air. A matrix comprising alpha-cyano cinnamic acid in 80% acetonitrile:20% aqueous ammonium citrate was applied in an automated format by dispensing 50 nL to each spot in the array. SAMDI-MS was performed using reflector-positive mode on an AB Sciex TOF-TOF 5800 System (AB Sciex, Framingham, MA) with 400 shots/spot analyzed in a random raster sampling. For data analysis, area under the curves (peaks) (AUCs) for the product and internal standard were calculated using the TOF/TOF Series Explorer (AB Sciex), and the amount of product formed was calculated using the equation (AUC product/AUC internal standard). The amount of product generated was calculated using the ratio of product area under the curve (AUC) divided by the AUC of the internal standard. Negative controls were pre-quenched with 0.5% formic acid final. Assay robustness was determined by Z-Factor. The IC50s were determined by fitting the curves using a four-parameter equation in Graphpad Prism 8.

3CLpro = 3CLpro (Severe acute respiratory syndrome coronavirus 2, UniProt P0DTD1); assay: SARS-CoV-2 3CLpro protease assay (duplex, SAMDI-MS); type: biochemical; set-up: For the duplex assay, 3CLpro and HRV3C was added; conditions: 3CLpro, 30 mins preincubation, class symbols; read-out: SARS-Cov-2 IC50
[4] = OC43 in HeLa cells, 6 days at 33° C., class symbols, read-out: EC50
[5] = HRV3C, class symbols, read-out: HRV IC50
[6] = OC43 in HeLa cells, 6 days at 33° C., bound, read-out: EC50

SMILES | EC50 [1] | EC50 [2] | IC50 (human cathepsin L) | CC50 (in vitro; class symbols) | CC50 at 6 days [3] | IC50 (HRV3C; HRV IC50, HRV3C, class symbols) | IC50 (3CLpro) | EC50 [1, 4] | IC50 (HRV3C; [5]) | CC50 (in vitro; numeric bounds) | EC50 [1, 6] | IC50 (HRV3C; HRV IC50, HRV3C, bound) | IC50 (HRV3C; HRV3C, bound, read-out: HRV IC50)
Cn1ccc2[nH]c(C(=O)N3C[C@@H]4CCC[C@@H]4[C@H]3C(=O)N[C@@H](C[C@@H]3CCNC3=O)C(=O)CO)cc2c1=O [Compound 77, (1S,3aR,6aS)—N—((S)-4-hydroxy-3-oxo-1-((S)-2-oxopyrrolidin-3-yl)butan-2-yl)-2-(5-methyl-4-oxo-4,5-dihydro-1H-pyrrolo[3,2-c]pyridine-2-carbonyl)octahydrocyclopenta[c]pyrrole-1-carboxamide] | > 10 µM | 10 to 100 µM | ≥ 10 µM | > 10 µM | > 10 µM | 2 to 20 µM | 0.02 to 0.2 µM |  |  |  |  |  | 
O=C(NCc1ccccc1)C(=O)C(C[C@@H]1CCNC1=O)NC(=O)[C@@H]1[C@H]2CCC[C@H]2CN1C(=O)c1cc2ccccc2[nH]1 (stereo partly drawn) [Compound 2, (1S,3aR,6aS)—N-(4-(benzylamino)-3,4-dioxo-1-((S)-2-oxopyrrolidin-3-yl)butan-2-yl)-2-(1H-indole-2-carbonyl)-octahydrocyclopenta[c]pyrrole-1-carboxamide] |  | 1 to 10 µM | 1 to 10 µM | > 10 µM | > 10 µM |  | 0.2 to 2 µM | 0.1 to 1 µM | 2 to 20 µM |  |  |  | 
O=C(NCc1ccccc1)C(=O)C(C[C@@H]1CCNC1=O)NC(=O)[C@@H]1CCCCN1C(=O)c1cc2ccccc2[nH]1 (stereo partly drawn) [Compound 1, (2S)—N-(4-(benzylamino)-3,4-dioxo-1-((S)-2-oxopyrrolidin-3-yl)butan-2-yl)-1-(1H-indole-2-carbonyl)piperidine-2-carboxamide] |  | > 100 µM |  |  | > 10 µM | 20 to 100 µM | 2 to 20 µM | 1 to 10 µM |  | > 100 µM |  |  | 
COc1cccc2[nH]c(C(=O)N3C[C@@H]4CCC[C@@H]4[C@H]3C(=O)N[C@@H](C[C@@H]3CCNC3=O)C(=O)C(=O)NCC(F)(F)F)cc12 [Compound 114] |  | 10 to 100 µM | ≥ 10 µM |  | > 10 µM |  | 0.2 to 2 µM | 1 to 10 µM | 2 to 20 µM | > 50 µM |  |  | 
COc1cccc2[nH]c(C(=O)N3C[C@@H]4CCC[C@@H]4[C@H]3C(=O)N[C@@H](C[C@@H]3CCNC3=O)C(=O)c3nc4ccccc4[nH]3)cc12 [Compound 92, (1S,3aR,6aS)—N-[(2S)-1-(1H-1,3-benzodiazol-2-yl)-1-oxo-3-[(3S)-2-oxopyrrolidin-3-yl]propan-2-yl]-2-(4-methoxy-1H-indole-2-carbonyl)-hexahydro-1H-cyclopenta[c]pyrrole-1-carboxamide] |  | 10 to 100 µM | ≥ 10 µM |  | > 10 µM |  | 0.2 to 2 µM |  |  | > 100 µM | > 10 µM | > 10 µM | 
O=C[C@H](C[C@@H]1CCNC1=O)NC(=O)[C@@H]1[C@H]2CCC[C@H]2CN1C(=O)c1cc2ccccc2[nH]1 [Compound 13, (1S,3aR,6aS)-2-(1H-indole-2-carbonyl)-N-[(2S)-1-oxo-3-[(3S)-2-oxopyrrolidin-3-yl]propan-2-yl]-hexahydro-1H-cyclopenta[c]pyrrole-1-carboxamide] |  | 1 to 10 µM | 1 to 10 µM |  | > 10 µM |  | < 0.02 µM | 1 to 10 µM | 0.2 to 2 µM | > 100 µM |  |  | 
O=C(NCc1ccccc1)C(=O)C(C[C@@H]1CCNC1=O)NC(=O)[C@@H]1CC2(CC2)CN1C(=O)c1cc2ccccc2[nH]1 (stereo partly drawn) [Compound 9] |  | 1 to 10 µM | 0.1 to 1 µM |  | > 10 µM |  | 0.02 to 0.2 µM | 0.1 to 1 µM | 2 to 20 µM | > 100 µM |  |  | 
COc1cccc2[nH]c(C(=O)N3C[C@@H]4CCC[C@@H]4[C@H]3C(=O)N[C@@H](C[C@@H]3CCNC3=O)C(=O)c3nc4ccccc4o3)cc12 [Compound 75, (1S,3aR,6aS)—N-[(2S)-1-(1,3-benzoxazol-2-yl)-1-oxo-3-[(3S)-2-oxopyrrolidin-3-yl]propan-2-yl]-2-(4-methoxy-1H-indole-2-carbonyl)-hexahydro-1H-cyclopenta[c]pyrrole-1-carboxamide] |  | 1 to 10 µM | ≥ 10 µM |  | > 10 µM |  | 0.02 to 0.2 µM | 0.1 to 1 µM |  | > 100 µM |  | > 10 µM | 
O=C(NCc1ccccc1)C(=O)C(C[C@@H]1CCNC1=O)NC(=O)[C@@H]1[C@H]2CC[C@H](C2)N1C(=O)c1cc2ccccc2[nH]1 (stereo partly drawn) [Compound 8] |  | 10 to 100 µM | 0.1 to 1 µM |  | > 10 µM |  | 0.2 to 2 µM | 1 to 10 µM | 2 to 20 µM | > 100 µM |  |  | 
COc1cccc2[nH]c(C(=O)N3Cc4ccccc4C[C@H]3C(=O)N[C@@H](C[C@@H]3CCNC3=O)C(=O)COCc3ccccc3)cc12 [Compound 99] |  | 10 to 100 µM | ≥ 10 µM | > 10 µM | > 10 µM |  | 2 to 20 µM |  |  |  | > 10 µM |  | > 10 µM
CC(C)(C)O[C@@H]1C[C@@H](C(=O)NC(C[C@@H]2CCNC2=O)C(=O)C(=O)NCc2ccccc2)N(C(=O)c2cc3ccccc3[nH]2)C1 (stereo partly drawn) [Compound 10] |  | > 100 µM |  |  | > 10 µM | 0.2 to 2 µM | 2 to 20 µM | 1 to 10 µM |  | > 100 µM |  |  | 
CO[C@@H]1C[C@@H](C(=O)NC(C[C@@H]2CCNC2=O)C(=O)C(=O)NCc2ccccc2)N(C(=O)c2cc3ccccc3[nH]2)C1 (stereo partly drawn) [Compound 12] |  | > 100 µM |  |  | > 10 µM | 20 to 100 µM | 2 to 20 µM | 10 to 100 µM |  | > 100 µM |  |  | 
O=C(NCc1ccccc1)C(=O)C(C[C@@H]1CCNC1=O)NC(=O)[C@@H]1C[C@@H](Oc2ccccc2)CN1C(=O)c1cc2ccccc2[nH]1 (stereo partly drawn) [Compound 5] |  | 10 to 100 µM |  |  | > 10 µM | 0.2 to 2 µM | 20 to 100 µM | 1 to 10 µM |  | > 100 µM |  |  | 
